Experimental data as given in patent US20210371413A1, “POLYCYCLIC AMIDES AS CYTOTOXIC AGENTS” (FEMTOGENIX LIMITED, priority 2018, published 2021).

Tests used:
[1] = tested on: 5′-[…]-3′ (poly GC) DNA duplex; test: FRET DNA melting, poly GC duplex; format: binding; conditions: FRET melting, FIG. 2 bottom panel (poly GC duplex)
Method: (§1) FRET DNA melting studies were undertaken on 15 and 16 using two fluorescently labelled sequences. The sequences (FIG. 1) were designed to represent poly AT and poly GC sequences.
(§2) The short duplexes used in this FRET study are relatively unstable in the duplex form with a melting temperature below 30° C. so that, in the absence of ligand, a large part of the melting occurs below the starting temperature of the experiment. However, it can be observed that 15 stabilizes the duplex form, producing increases in melting temperature with ΔTm values of […] for 5′-AAAAAAAGAAAAAATIT-3′ (FIG. 2, top panel), and ˜25° C. (FIG. 2, bottom panel).
(§3) Oligonucleotides were obtained from ATDbio (Southampton, UK) in lyophilised form. […]
(§4) The reaction mixture was comprised of 4 μL of 250 mM phosphate buffer (final concentration of 50 mM), 4 μL flourophor and 4 μL quencher molecule of the appropriate oligonucleotide for a final concentration of 0.2 μM, 4 μL 5 M sodium chloride (final concentration of 1 M NaCl), and 4 μL of distilled H2O. […] This mixture was analysed without prior annealing.
(§5) Fluorescence melting profiles were measured using a Roche LightCycler using a total reaction volume of 20 μL. […] Annealing steps and melting steps were all recorded and changes in fluorescence were measured at 520 nm. […]

[2] = tested on: DS3 DNA fragment; test: DNA footprinting, DS3 DNA fragment; format: binding; conditions: DS3 DNA sequence
Method: The DNA sequence selectivity profile of the molecules was investigated using a modification of the previously established DNA footprinting assay. Following an overnight incubation of the ligand-DNA complexes, the mixture was mixed with strand separation buffer containing 10 mM EDTA, 10 mM NaOH, 0.1% bromophenol blue, 80% formamide and incubated at 100° C. for 3 min. The mixture was then immediately cooled on ice and run on an 8% denaturing gel.
The preparation of the DS3 DNA fragment (FIG. 5) and the “D” DNA fragment (FIG. 6) has been previously described. Briefly, the sequence which had been cloned into the BamHI site of pUC18 was obtained by cutting with HindIII and EcoRI. Radiolabelled DNA fragments were prepared by filling in the 3′-end of the HindIII site with [α-^32P]dATP using Klenow DNA polymerase (exo-).
The radiolabelled DNA fragment was separated from the remainder of the plasmid DNA on a 6% non-denaturing polyacrylamide gel. The gel (20 cm long, 0.3 mm thick) was run at 400 V in 1×TBE running buffer for about 1-2 h, until the bromophenol blue had run most of the way down the gel. The glass plates were separated and the position of the labelled DNA fragment was established by short (1 min) exposure to an X-ray film. The relevant band was then cut from the gel and the radiolabelled DNA eluted by adding 300 μL 10 mM Tris-HCl, pH 7.5 containing 0.1 mM EDTA and gently agitating overnight at room temperature. The eluted DNA was finally precipitated with ethanol and re-suspended in a suitable volume of 10 mM Tris-HCl, pH 7.5 containing 0.1 mM EDTA buffer so as to give at least 10 counts per second/μL on a hand-held Geiger counter. […]
Footprinting reactions were performed as previously described using the DNA fragments DS3, which contains tracts of AT/GC bases; and using the “D” DNA fragments which represents a random DNA sequence. […] After gel purification, the radiolabelled DNA was dissolved in 10 mM Tris-HCl pH 7.5 containing 0.1 mM EDTA, at a concentration of about 10 c.p.s per μL as determined on a hand held Geiger counter. […]

[3] = tested on: 5′-AAAAAAAGAAAAAATIT-3′ (poly AT) DNA duplex; test: FRET DNA melting, poly AT duplex; format: binding; conditions: fragments of 15, FIG. 3; duplex not specified
Method: as §1, §2, §3, §4, §5

[4] = tested on: calf thymus DNA; conditions: cited from earlier work

## COc1cc2c(cc1OCCCC(=O)Nc1cc(C(=O)Nc3ccc(-c4cc(C(=O)Nc5ccc(N)cc5)n(C)c4)cc3)n(C)c1)N=C[C@@H]1CCCCN1C2=O [Compound 15, (S)—N-(4-aminophenyl)-4-(4-(4-(4-((2-methoxy-12-oxo-6a,7,8,9,10,12-hexahydrobenzo[e]pyrido[1,2-a][1,4]diazepin-3-yl)oxy)butan-amido)-1-methyl-1H-pyrrole-2-carboxamido)phenyl)-1-methyl-1H-pyrrole-2-carboxamide]
[1]
  ΔTm (increase in melting temperature): ~25 °C
[2]
  DNA binding pattern (footprint): bind to tracts of DNA where a GC base is present

## COc1cc2c(cc1O)N=C[C@@H]1CCCCN1C2=O [Compound 28, (S)-3-Hydroxy-2-methoxy-7,8,9,10-tetrahydrobenzo[e]-pyrido[1,2-a][1,4]diazepin-12(6aH)-one]
[3]
  DNA stabilisation (FRET denaturation): failed to stabilise DNA

## Cn1cc(N)cc1C(=O)Nc1ccc(-c2cc(C(=O)Nc3ccc(N)cc3)n(C)c2)cc1 [Compound 32, 4-Amino-N-(4-(5-((4-aminophenyl)carbamoyl)-1-methyl-1H-pyrrol-3-yl)phenyl)-1-methyl-1H-pyrrole-2-carboxamide]
[3]
  DNA stabilisation (FRET denaturation): failed to stabilise DNA

## Cc1ccc2c(c1O)NC(O)C1CC(/C=C/C(N)=O)=CN1C2=O (centres unmarked) [anthramycin]
[4]
  thermal stabilization (ΔTm): 13.1 °C
